According to US10131652B2, “Pyrimidinyloxy benzene derivatives as herbicides” (E. I. DU PONT DE NEMOURS AND COMPANY, priority 2014, dated 2018):

Tests used:
Format in all cases: in vivo
corn (Zea mays) = assay: Test B pre-/postemergence plant response
Procedure, shortened: (§1)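 Visual injury scores on a 0–100 scale (100 = complete control) relative to untreated plants, taken about 10 days post-treatment in greenhouse. Treatments were a directed preemergence soil spray and a postemergence spray at one- to two-leaf stage, using surfactant-containing solvent formulation.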

[1] = tested on: wheat (Triticum aestivum); assay: Test B pre-/postemergence plant response
Procedure, shortened: as §1

[2] = tested on: morningglory (Ipomoea spp.); assay: Test B pre-/postemergence plant response
Procedure, shortened: as §1

[3] = tested on: large (Lg) crabgrass (Digitaria sanguinalis); assay: Test B pre-/postemergence plant response
Procedure, shortened: as §1

[4] = tested on: velvetleaf (Abutilon theophrasti); assay: Test B pre-/postemergence plant response
Procedure, shortened: as §1

[5] = tested on: giant foxtail (Setaria faberii); assay: Test B pre-/postemergence plant response
Procedure, shortened: as §1

[6] = tested on: pigweed (Amaranthus retroflexus); assay: Test B pre-/postemergence plant response
Procedure, shortened: as §1

[7] = tested on: barnyardgrass (Echinochloa crus-galli); assay: Test B pre-/postemergence plant response
Procedure, shortened: as §1

rice (Oryza sativa) = assay: Test C flooded paddy test plant response; settings: Flood, 250 g ai/ha; scale of 0 to 100 where 0 is no effect and 100 is complete control; 13 to 15 days
Procedure, shortened: (§2)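 Readout is a visual 0–100 score (100 = complete control) versus controls at 13–15 days. Plants at 2-leaf stage, flooded to 3 cm, treated through paddy water.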

[8] = tested on: ducksalad (Heteranthera limosa); assay: Test C flooded paddy test plant response; settings: Flood, 250 g ai/ha; scale of 0 to 100 where 0 is no effect and 100 is complete control; 13 to 15 days
Procedure, shortened: as §2

[9] = tested on: small-flower umbrella sedge (Cyperus difformis); assay: Test C flooded paddy test plant response; settings: Flood, 250 g ai/ha; scale of 0 to 100 where 0 is no effect and 100 is complete control; 13 to 15 days
Procedure, shortened: as §2

[10] = tested on: barnyardgrass (Echinochloa crus-galli); assay: Test C flooded paddy test plant response; settings: Flood, 250 g ai/ha; scale of 0 to 100 where 0 is no effect and 100 is complete control; 13 to 15 days
Procedure, shortened: as §2

[11] = 125 g ai/ha, postemergence, 0 to 100 scale, 0 no effect, 100 complete control
[12] = Postemergence, 500 g ai/ha, 0 to 100 scale (0 no effect, 100 complete control)
[13] = Preemergence, 125 g ai/ha, 0 to 100 scale (0 no effect, 100 complete control)
[14] = Preemergence, 500 g ai/ha, 0 to 100 scale where 0 is no effect and 100 is complete control
[15] = 500 g ai/ha, postemergence, 0 to 100 scale, 0 no effect, 100 complete control

Compound	Plant response rating, Corn (corn (Zea mays); [11])	Plant response rating, Corn (corn (Zea mays); [12])	Corn plant response rating (corn (Zea mays); [13])	Plant response rating, Corn (corn (Zea mays); [14])	Plant response rating, Wheat [1, 11]	Plant response rating, Wheat [1, 12]	Wheat plant response rating [1, 13]	Plant response rating, Wheat [1, 14]	Plant response rating, Morningglory [2, 11]	Plant response rating, Morningglory [2, 12]	Plant response rating, Morningglory [2, 14]	Plant response rating, Crabgrass, Large [3, 14]	Plant response rating, Velvetleaf [4, 14]	Plant response rating, Foxtail, Giant [5, 14]	Plant response rating, Pigweed [6, 14]	Plant response rating, Barnyardgrass [7, 14]	Rice plant response rating (rice (Oryza sativa))	Ducksalad plant response rating [8]	Sedge, Umbrella plant response rating [9]	Barnyardgrass plant response rating [10]	other results
Cc1noc(C)c1-c1c(C#N)cccc1Oc1ncc(Cl)cn1 [Compound 134]	10	80	20	60	10	30	20	20	10	90	80	100	100	100	100	90	0	40	75	0	Morningglory plant response rating [2, 13]: 10; Plant response rating, Crabgrass, Large [3, 11]: 10; Plant response rating, Crabgrass, Large [3, 12]: 100; Crabgrass, Large plant response rating [3, 13]: 100; Plant response rating, Velvetleaf [4, 11]: 40; Plant response rating, Velvetleaf [4, 12]: 90; Velvetleaf plant response rating [4, 13]: 40; Plant response rating, Foxtail, Giant [5, 11]: 10; Plant response rating, Foxtail, Giant [5, 12]: 90; Foxtail, Giant plant response rating [5, 13]: 90; Plant response rating, Pigweed [6, 11]: 60; Plant response rating, Pigweed [6, 12]: 100; Pigweed plant response rating [6, 13]: 100; Plant response rating, Barnyardgrass [7, 11]: 20; Plant response rating, Barnyardgrass [7, 12]: 90; Barnyardgrass plant response rating [7, 13]: 70
Clc1ccc(-c2c(Br)cccc2Oc2ncc(Cl)cn2)nc1 [Compound 135]	10	30	0	0	0	10	0	0	20	50	10	100	60	100	100	60	0	0	0	0	Morningglory plant response rating [2, 13]: 0; Plant response rating, Crabgrass, Large [3, 11]: 10; Plant response rating, Crabgrass, Large [3, 12]: 50; Crabgrass, Large plant response rating [3, 13]: 80; Plant response rating, Velvetleaf [4, 11]: 40; Plant response rating, Velvetleaf [4, 12]: 80; Velvetleaf plant response rating [4, 13]: 20; Plant response rating, Foxtail, Giant [5, 11]: 10; Plant response rating, Foxtail, Giant [5, 12]: 60; Foxtail, Giant plant response rating [5, 13]: 60; Plant response rating, Pigweed [6, 11]: 100; Plant response rating, Pigweed [6, 12]: 100; Pigweed plant response rating [6, 13]: 90; Plant response rating, Barnyardgrass [7, 11]: 10; Plant response rating, Barnyardgrass [7, 12]: 40; Barnyardgrass plant response rating [7, 13]: 10
Cn1nc(C(F)(F)F)cc1-c1c(C#N)cccc1Oc1ncc(Cl)cn1 [Compound 136]		70		40		40		30		90	90	100	100	100	100	100	0	40	40	0	Plant response rating, Crabgrass, Large [3, 12]: 90; Plant response rating, Velvetleaf [4, 12]: 100; Plant response rating, Foxtail, Giant [5, 12]: 80; Plant response rating, Pigweed [6, 12]: 100; Plant response rating, Barnyardgrass [7, 12]: 90
Clc1cnc(Oc2ccccc2-c2nccs2)nc1 [Compound 199]	0	0	0	0	0	0	0	0	0	10	0	10	10	0	30	0	0	0	80	0	Morningglory plant response rating [2, 13]: 0; Plant response rating, Crabgrass, Large [3, 11]: 0; Plant response rating, Crabgrass, Large [3, 12]: 10; Crabgrass, Large plant response rating [3, 13]: 0; Plant response rating, Velvetleaf [4, 11]: 0; Plant response rating, Velvetleaf [4, 12]: 10; Velvetleaf plant response rating [4, 13]: 0; Plant response rating, Foxtail, Giant [5, 11]: 0; Plant response rating, Foxtail, Giant [5, 12]: 0; Foxtail, Giant plant response rating [5, 13]: 0; Plant response rating, Pigweed [6, 11]: 10; Plant response rating, Pigweed [6, 12]: 30; Pigweed plant response rating [6, 13]: 0; Plant response rating, Barnyardgrass [7, 11]: 0; Plant response rating, Barnyardgrass [7, 12]: 0; Barnyardgrass plant response rating [7, 13]: 0
O=[N+]([O-])c1cc(Cl)cnc1-c1ccccc1Oc1ncc(Cl)cn1 [Compound 201]	0		0	0	0		0	0	0		0	0	0	0	0	0	0	0	0	0	Plant response rating, Corn (corn (Zea mays); [15]): 0; Plant response rating, Wheat [1, 15]: 0; Plant response rating, Morningglory [2, 15]: 0; Morningglory plant response rating [2, 13]: 0; Plant response rating, Crabgrass, Large [3, 11]: 0; Plant response rating, Crabgrass, Large [3, 15]: 0; Crabgrass, Large plant response rating [3, 13]: 0; Plant response rating, Velvetleaf [4, 11]: 0; Plant response rating, Velvetleaf [4, 15]: 0; Velvetleaf plant response rating [4, 13]: 0; Plant response rating, Foxtail, Giant [5, 11]: 0; Plant response rating, Foxtail, Giant [5, 15]: 0; Foxtail, Giant plant response rating [5, 13]: 0; Plant response rating, Pigweed [6, 11]: 0; Plant response rating, Pigweed [6, 15]: 0; Pigweed plant response rating [6, 13]: 0; Plant response rating, Barnyardgrass [7, 11]: 0; Plant response rating, Barnyardgrass [7, 15]: 0; Barnyardgrass plant response rating [7, 13]: 0
